Data on two molecules can be found in paper PMC2766921 (Biochemistry, 2009).

The subject of assay [1] is purified bacterial succinyl-CoA synthetase (BSCS). Put plainly: in-gel BN-PAGE ATP hydrolysis assay. In kind it is biochemical, Escherichia coli. The settings on record: 8 mM ATP, 20 mM succinate, 0.5 mM CoA, 14 mM MgSO4, pH 7.8, room temperature.
The test system is the same in assay [2]. Put plainly: in-gel BN-PAGE GTP hydrolysis assay. In kind it is biochemical, Escherichia coli. The settings on record: 8 mM GTP, 20 mM succinate, 0.5 mM CoA, 14 mM MgSO4, pH 7.8, room temperature.

Sequence of purified bacterial succinyl-CoA synthetase (BSCS) (P0AGE9 2-289): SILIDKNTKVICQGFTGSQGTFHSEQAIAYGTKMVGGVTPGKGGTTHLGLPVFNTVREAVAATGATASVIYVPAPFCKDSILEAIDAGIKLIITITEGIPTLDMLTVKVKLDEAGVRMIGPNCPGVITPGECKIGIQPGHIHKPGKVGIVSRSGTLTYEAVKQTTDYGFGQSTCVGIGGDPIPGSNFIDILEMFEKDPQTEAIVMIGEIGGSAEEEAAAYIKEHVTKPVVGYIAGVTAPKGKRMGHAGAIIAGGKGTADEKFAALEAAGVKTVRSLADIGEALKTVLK
Sequence of purified bacterial succinyl-CoA synthetase (BSCS) (P0A836 whole entry, further chain): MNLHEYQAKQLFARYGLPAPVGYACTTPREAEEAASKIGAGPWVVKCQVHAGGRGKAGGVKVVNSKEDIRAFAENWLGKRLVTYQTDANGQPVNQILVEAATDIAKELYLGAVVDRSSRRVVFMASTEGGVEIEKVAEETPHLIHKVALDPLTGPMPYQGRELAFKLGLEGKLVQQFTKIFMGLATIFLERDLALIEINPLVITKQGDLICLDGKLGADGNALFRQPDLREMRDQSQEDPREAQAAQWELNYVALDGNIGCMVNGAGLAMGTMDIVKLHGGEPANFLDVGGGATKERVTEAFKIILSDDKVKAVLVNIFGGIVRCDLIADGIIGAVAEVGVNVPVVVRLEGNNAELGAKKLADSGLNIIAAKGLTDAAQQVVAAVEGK

For the molecule `Nc1ncnc2c1ncn2[C@@H]1O[C@H](COP(=O)(O)OP(=O)(O)OP(=O)(O)O)[C@@H](O)[C@H]1O` [ATP], in assay [1], the “in-gel BN-PAGE ATP hydrolysis assay (lead phosphate)” value is “ATP-dependent activity of BSCS was higher than the GTP-dependent activity”. Regarding `Nc1nc2c(ncn2[C@@H]2O[C@H](COP(=O)(O)OP(=O)(O)OP(=O)(O)O)[C@@H](O)[C@H]2O)c(=O)[nH]1` [GTP], the “in-gel BN-PAGE GTP hydrolysis assay (lead phosphate)” value in assay [2] is listed as “ATP-dependent activity of BSCS was higher than the GTP-dependent activity”.
